The values below come from US4182896A, “Indane derivatives” (Societe Hexachimie, priority 1974, dated 1980).

Where a name gives a salt, the structure may show the parent alone. Where only a bound is given, the exact number is not on record here.

The subject of series [1] is SPF male rats, OFA strain. Nature of the series: Anti-inflammatory activity: paw swelling after subcutaneous plantar injection of carraghenine, oral administration. Particulars: Rattus norvegicus, po. It counts as in vivo. Summed up: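 Oral dosing to SPF male OFA rats (120–130 g, 12 per batch), given as two half-doses at 2 h and 30 min before subplantar injection of 0.05 ml 1% carraghenine. Hind-paw volume was measured at intervals, and ED50 was calculated at the time of peak swelling in controls.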

The test system of series [2] is male mice (SPF1, OF1 strain). Nature of the series: Analgesic activity: inhibition of pain reactions (abdominal twistings) after intraperitoneal phenylbenzoquinone, oral administration. Format: in vivo. Particulars: Mus musculus, po. On the procedure:
The products tested are administered orally to batches of 6 male mice (SPF1, OF1 strain) weighing 19-20 g.
1 hour later, 0.3 ml of a 0.02% strength solution of phenylbenzoquinone is injected intraperitoneally into each mouse and, from the 5th to the 10th minute after the latter treatment, the number of pain reactions (abdominal twistings) is counted.
Table V to VIII below give the percentage inhibition of these reactions.

A further series is described as follows: Solubility in water. It counts as physicochemical. Particulars: white powder, sodium salt.

One may read the ED50 as the midpoint of the dose-response relation. In the case of `CC1CC(C)c2cc(C(C)C(=O)O)ccc21` (centres unmarked) [Example 6, Sodium salt of 2-methyl-[1,3-dimethyl-indanyl-(5)]-acetic acid], the inhibition in vivo at 64 mg/kg in series [1] (64 mg/kg oral, carraghenine, read-out: percentage reduction in the inflammation) is 16%; in series [2] (64 mg/kg oral, read-out: percentage inhibition of pain reactions), 59%. Also, the inhibition in vivo at 128 mg/kg turned out to be 39% in series [1] (128 mg/kg oral, carraghenine, read-out: percentage reduction in the inflammation) and 78% in series [2] (128 mg/kg oral, read-out: percentage inhibition of pain reactions). Further, the inhibition in vivo at 256 mg/kg in series [1] (256 mg/kg oral, carraghenine, read-out: percentage reduction in the inflammation) was determined as 44%; in series [2] (256 mg/kg oral, read-out: percentage inhibition of pain reactions), 72%. Moreover, the ED50 was above 256 mg/kg in series [1] (at the moment of greatest swelling of the controls, read-out: ED50 (50% effective dose), anti-inflammatory) and 40 mg/kg in series [2] (read-out: ED50 (50% effective dose), analgesic). Further, in series [2] (16 mg/kg oral, read-out: percentage inhibition of pain reactions), the inhibition in vivo at 16 mg/kg came to 28%. Also, the inhibition in vivo at 32 mg/kg in series [2] (32 mg/kg oral, read-out: percentage inhibition of pain reactions) is 41%. Also, the solubility in water entry in the series “Solubility in water” is given as “soluble in water”.
